Patent US20230159511A1, “TETRAHYDROISOQUINOLINE COMPOUNDS AS NRF2 ACTIVATORS” (C4X Discovery Limited, priority 2020, published 2023)
Where two headings read alike, the source gives them in different places.

Key:
[1] = system: NRF2 mediated gene NAD(P)H:quinone acceptor oxidoreductase 1 (NQO1) in BEAS-2B cells; assay: Beas2B NQO1 mRNA Cell Based Assay; parameters: species or system human; conditions: Homo sapiens
Procedure: Beas2B NQO1 mRNA Cell Based Assay
The up regulation of the NRF2 mediated gene NAD(P)H:quinone acceptor oxidoreductase 1 (NQO1) was measured using the following assay method: BEAS-2B cells (ATCC CRL-9609) were plated in 96-well clear plates at 20,000 cells/well in 75 μL of cell culture media and incubated overnight (37° C., 5% CO2). On day 2, 25 μL of compound or controls were added to the cells for 24 h. On day 3, the medium was aspirated from the plate and the Cells-to-CT™ 1-Step TaqMan® Kit (Ambion A25603) was used to perform expression analysis directly from cultured cells without RNA purification according to the manufacturer's instructions.
Briefly, cells were washed with ice cold PBS and 22.5 μL of room-temperature DNase/Lysis solution was added to the cells and incubated at room temperature for 5 minutes. To stop the reaction, 2.25 μL of stop solution was added to the cell lysate. The samples were diluted 1:5 using nuclease free water and 2.5 μL transferred into the PCR plate. Real-time PCR was performed using the C-1000 Thermal Cycler (Bio-Rad) using human beta actin as the internal control. The cDNA was amplified with a specific primer for NQO1 using the 1-step RT-PCR master mix (Ambion Cells-to-CTTM 1-Step TaqMan® Kit A25603). The primers/probes sets that were used for amplification of cDNA were obtained from TaqMan Gene Expression Assays (Applied Biosystems). The comparative CT (ΔΔCT) relative quantification method was used to calculate the relative mRNA level of the target gene NQO1 as described in the Applied Biosystems Chemistry Guide. The data are expressed as an increase in target gene mRNA compared to vehicle (0.1% DMSO) control and the EC50 values were determined by fitting the data to a four parameter logistic fit using XLfit or XE Runner within ActivityBase.

[2] = molecular target: T1, human KEAP1 (N-term, residues 321-609) (Homo sapiens, UniProt Q14145); assay: KEAP1 Kelch Fluorescence Polarization (FP) Assay; format: binding; conditions: inhibition of Kelch domain-NRF2 interaction; 2 nM FITC-labelled NRF2 peptide, 25 nM KEAP1, 1 h room temperature; compounds below 10 nM cannot be differentiated
T1 construct: human KEAP1 (N-term, residues 321-609)
T1 sequence (Q14145 321-609): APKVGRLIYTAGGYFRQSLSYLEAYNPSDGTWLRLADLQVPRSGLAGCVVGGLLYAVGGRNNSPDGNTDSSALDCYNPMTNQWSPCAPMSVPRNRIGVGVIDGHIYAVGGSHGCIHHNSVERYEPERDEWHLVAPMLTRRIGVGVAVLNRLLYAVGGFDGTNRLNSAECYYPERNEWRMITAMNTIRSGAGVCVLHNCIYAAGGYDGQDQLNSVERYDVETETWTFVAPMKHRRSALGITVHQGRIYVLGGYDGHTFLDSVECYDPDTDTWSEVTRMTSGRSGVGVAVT
Summary of the method: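 Compounds in 12-point curves (top 10 μM) displaced 2 nM FITC-labelled NRF2 peptide from 25 nM KEAP1 residues 321-609 over 1 h at room temperature. Polarization read at 470/530 nm, window set by 50 μM unlabelled peptide; four-parameter fit gave IC50, floor 10 nM.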

[3] = BEAS-2B cells, compound for 24 h, increase in NQO1 mRNA compared to vehicle (0.1% DMSO) control, read-out: EC50

SMILES	IC50 [2]	EC50 [1, 3]	EC50 ([1]; BEAS-2B, 24 h)
CNC(=O)[C@H]1CCCC[C@H]1C(=O)N1CCc2cccc(O[C@H]3CCN(C(=O)c4cc(C)on4)C3)c2[C@H]1CN1C(=O)c2ccccc2C1=O [Example 20, (1S,2R)-2-((S)-1-((1,3-dioxoisoindolin-2-yl)methyl)-8-(((S)-1-(5-methylisoxazole-3-carbonyl)pyrrolidin-3-yl)oxy)-1,2,3,4-tetrahydroisoquinoline-2-carbonyl)-N-methylcyclohexane-1-carboxamide]	29 nM	> 500 nM	–
CNC(=O)[C@H]1CCCC[C@H]1C(=O)N1CCc2c(Cl)ccc(OCc3ccc4c(c3)nnn4C)c2[C@H]1CN1CCCC1=O [Example 72, (1S,2R)-2-((S)-5-chloro-8-((1-methyl-1H-benzo[d][1,2,3]triazol-5-yl)methoxy)-1-((2-oxopyrrolidin-1-yl)methyl)-1,2,3,4-tetrahydroisoquinoline-2-carbonyl)-N-methylcyclohexane-1-carboxamide]	27 nM	605 nM	–
CCNC(=O)[C@H]1CCCC[C@H]1C(=O)N1CCc2cccc(OCCNC(=O)c3cc(C)on3)c2[C@H]1CN1C(=O)c2ccccc2C1=O [Example 6, N-(2-(((S)-1-((1,3-dioxoisoindolin-2-yl)-methyl)-2((1R,2S)-2-(ethylcarbamoyl)cyclohexane-1-carbonyl)-1,2,3,4-tetrahydroisoguinolin-8-yl)oxy)ethyl)-5-methylisoxazole-3-carboxamide]	196 nM	2360 nM	–
CNC(=O)[C@H]1CCCC[C@H]1C(=O)N1CCc2c(Br)ccc(OCc3noc(C(C)C)n3)c2[C@H]1CN1CCCC1=O [Example 55, (1S,2R)-2-((S)-5-bromo-8-((5-isopropyl-1,2,4-oxadiazol-3-yl)methoxy)-1-((2-oxopyrrolidin-1-yl)methyl)-1,2,3,4-tetrahydroisoquinoline-2-carbonyl)-N-methylcyclohexane-1-carboxamide]	54 nM	330 nM	–
NC(=O)[C@H]1CCCC[C@H]1C(=O)N1CCc2c(Cl)ccc(OCc3noc4ccccc34)c2[C@H]1CN1CCCC1=O [Example 54, (1S,2R)-2-((S)-8-(benzo[d]isoxazol-3-ylmethoxy)-5-chloro-1-((2-oxopyrrolidin-1-yl)methyl)-1,2,3,4-tetrahydroisoquinoline-2-carbonyl)cyclohexane-1-carboxamide, reference compound]	31 nM	135 nM	–
CNC(=O)[C@@]1(C)CCCC[C@H]1C(=O)N1CCc2c(Cl)ccc(OCc3nnn(C)c3C(F)F)c2[C@H]1CN1CCCC1=O [Example 69, (1S,2R)-2-((S)-5-chloro-8-((5-(difluoromethyl)-1-methyl-1H-1,2,3-triazol-4-yl)methoxy)-1-((2-oxopyrrolidin-1-yl)methyl)-1,2,3,4-tetrahydroisoquinoline-2-carbonyl)-N,1-dimethylcyclohexane-1-carboxamide]	14 nM	239 nM	–
CNC(=O)N1CCC[C@H]1C(=O)N1CCc2c(Cl)ccc(OCc3nnn(C)c3C(F)F)c2[C@H]1CN1CCCC1=O [Example 67, (S)-2-((S)-5-chloro-8-((5-(difluoromethyl)-1-methyl-1H-1,2,3-triazol-4-yl)methoxy)-1-((2-oxopyrrolidin-1-yl)methyl)-1,2,3,4-tetrahydroisoquinoline-2-carbonyl)-N-methylpyrrolidine-1-carboxamide]	29 nM	–	1360 nM
CNC(=O)[C@H]1CCCC[C@H]1C(=O)N1CCc2c(Cl)ccc(OCCc3cn(C)nn3)c2[C@H]1CN1CCCC1=O [Example 66, (1S,2R)-2-((S)-5-chloro-8-(2-(1-methyl-1H-1,2,3-triazol-4-yl)ethoxy)-1-((2-oxopyrrolidin-1-yl)methyl)-1,2,3,4-tetrahydroisoquinoline-2-carbonyl)-N-methylcyclohexane-1-carboxamide]	151 nM	5660 nM	–
CNC(=O)[C@H]1CCCC[C@H]1C(=O)N1CCc2c(Cl)ccc(OCc3nnc(C)n3C)c2[C@H]1CN1CCCC1=O [Example 86, (1S,2R)-2-((S)-5-chloro-8-((4,5-dimethyl-4H-1,2,4-triazol-3-yl)methoxy)-1-((2-oxopyrrolidin-1-yl)methyl)-1,2,3,4-tetrahydroisoquinoline-2-carbonyl)-N-methylcyclohexane-1-carboxamide]	14 nM	2420 nM	–
CNC(=O)N1CCC[C@H]1C(=O)N1CCc2c(Cl)ccc(OCc3cn(C)nn3)c2[C@H]1CN1CCCC1=O [Example 89, (S)-2-((S)-5-chloro-8-((1-methyl-1H-1,2,3-triazol-4-yl)methoxy)-1-((2-oxopyrrolidin-1-yl)methyl)-1,2,3,4-tetrahydroisoquinoline-2-carbonyl)-N-methylpyrrolidine-1-carboxamide]	19 nM	8720 nM	–
CNC(=O)C1CCCC1C(=O)N1CCc2c(Cl)ccc(OCc3nnn(C)c3C(F)F)c2[C@H]1CN1CCCC1=O (single isomer, unassigned) [Example 65]	18 nM	1860 nM	–

The next molecules have a lower IC50 [2] than those just listed; values first:

IC50 [2]	SMILES	EC50 [1, 3]	EC50 ([1]; BEAS-2B, 24 h)
12 nM	CNC(=O)N1CCCC[C@H]1C(=O)N1CCc2c(Cl)ccc(OCc3cn(C)nn3)c2[C@H]1CN1CCCC1=O [Example 92, (S)-2-((S)-5-chloro-8-((1-methyl-1H-1,2,3-triazol-4-yl)methoxy)-1-((2-oxopyrrolidin-1-yl)methyl)-1,2,3,4-tetrahydroisoquinoline-2-carbonyl)-N-methylpiperidine-1-carboxamide]	565 nM	–
6.1 nM	CNC(=O)[C@@]1(C)CCCC[C@H]1C(=O)N1CCc2c(Cl)ccc(OCc3nnn(C)c3C)c2[C@H]1CN1CC2(CC2)CC1=O [Example 101, (1S,2R)-2-((S)-5-chloro-8-((1,5-dimethyl-1H-1,2,3-triazol-4-yl)methoxy)-1-((6-oxo-5-azaspiro[2.4]heptan-5-yl)methyl)-1,2,3,4-tetrahydroisoquinoline-2-carbonyl)-N,1-dimethylcyclohexane-1-carboxamide]	18 nM	–
7.2 nM	CNC(=O)[C@H]1CCCC[C@H]1C(=O)N1CCc2c(Cl)ccc(OCc3nnc4ccccn34)c2[C@H]1CN1Cc2ccccc2C1=O [Example 77, (1S,2R)-2-((S)-8-([1,2,4]triazolo[4,3-a]pyridin-3-ylmethoxy)-5-chloro-1-((1-oxoisoindolin-2-yl)methyl)-1,2,3,4-tetrahydroisoquinoline-2-carbonyl)-N-methylcyclohexane-1-carboxamide]	77 nM	–
9.4 nM	CNC(=O)[C@H]1CCCC[C@H]1C(=O)N1CCc2c(Cl)ccc(OCc3nnc4ccccn34)c2[C@H]1CN1CCCC1=O [Example 73, (1S,2R)-2-((S)-8-([1,2,4]triazolo[4,3-a]pyridin-3-ylmethoxy)-5-chloro-1-((2-oxopyrrolidin-1-yl)methyl)-1,2,3,4-tetrahydroisoquinoline-2-carbonyl)-N-methylcyclohexane-1-carboxamide]	288 nM	–
7.4 nM	CNC(=O)[C@@]1(C)CCCC[C@H]1C(=O)N1CCc2c(Cl)ccc(OCc3nnn(C)c3C3CC3)c2[C@H]1CN1CCCC1=O [Example 99, (1S,2R)-2-((S)-5-chloro-8-((5-cyclopropyl-1-methyl-1H-1,2,3-triazol-4-yl)methoxy)-1-((2-oxopyrrolidin-1-yl)methyl)-1,2,3,4-tetrahydroisoquinoline-2-carbonyl)-N,1-dimethylcyclohexane-1-carboxamide]	109 nM	–
7.1 nM	CNC(=O)[C@@]1(C)CCCC[C@H]1C(=O)N1CCc2c(Cl)cc(F)c(OCc3cn(C)nn3)c2[C@H]1CN1CC2(CC2)CC1=O [Example 110, (1S,2R)-2-((S)-5-chloro-7-fluoro-8-((1-methyl-1H-1,2,3-triazol-4-yl)methoxy)-1-((6-oxo-5-azaspiro[2.4]heptan-5-yl)methyl)-1,2,3,4-tetrahydroisoquinoline-2-carbonyl)-N,1-dimethylcyclohexane-1-carboxamide]	66 nM	–
13 nM	CNC(=O)[C@@]1(C)CCC[C@H]1C(=O)N1CCc2c(Cl)ccc(OCc3nnn(C)c3C(F)F)c2[C@H]1CN1CC2(CC2)CC1=O [Example 94, (1S,2R)-2-((S)-5-chloro-8-((5-(difluoromethyl)-1-methyl-1H-1,2,3-triazol-4-yl)methoxy)-1-((6-oxo-5-azaspiro[2.4]heptan-5-yl)methyl)-1,2,3,4-tetrahydroisoquinoline-2-carbonyl)-N,1-dimethylcyclopentane-1-carboxamide]	148 nM	–
